Experimental data: patent US8983257B2, “Therapeutic light delivery apparatus, method, and system” (Nomir Medical Technologies, Inc., priority 2002, dated 2015)
Where “and” joins values, the source holds several entries; their conditions need not be identical. Equal values may be shown once. Entries after “also recorded” stand apart in the source; their conditions may differ.

Tests used:
Format in all cases: cell-based, Staphylococcus aureus
MRSA [1] = assay: MRSA/antimicrobial potentiation Experiment 1: CFU with or without 30 μg/ml methicillin, laser dosages A1 to H1; conditions: for fewer CFU in the laser treated samples compared to the untreated controls: methicillin plates (30 μg/ml)
Procedure: Four separate experiments have been performed.
Eight different laser dosages were used to treat a saline-suspension of logarithmically growing MRSA, labeled A1 to H1.
(§1) The treated and a control untreated suspension were diluted and plated in triplicate on trypic soy agar with or without 30 μg/ml methicillin.
(§2) After 24 hrs of growth at 37° C. colonies were counted.
CFU (colony forming units) were compared between the plates with and without methicillin for both control (untreated) and treated MRSA.

MRSA [2] = assay: MRSA/antimicrobial potentiation Experiment 3: CFU with or without 30 μg/ml methicillin, laser dosages A3 to H3; conditions: for Fold increase in methicillin sensitivity: 30 μg/ml methicillin
Procedure: Eight different laser dosages based on an effective dose established in experiments 1 and 2 and previously were used to treat a saline-suspension of logarithmically growing MRSA, labeled A3 to H3.
[…] After 24 hrs of growth at 37° C. colonies were counted.

MRSA [3] = assay: MRSA CFU count with methicillin after sub-lethal NIMELS laser (Example X); conditions: methicillin at resistant MIC just below effectiveness level
From the text: The following illustrates the general antibacterial methods according to the invention, using a MRSA model for the in vitro Experiments V and VIII-XII.
a) μ1 is sub-lethal dosimetry from the NIMEL laser system on MRSA as a control and;

MRSA [4] = assay: MRSA/antimicrobial potentiation Experiment 4: CFU with or without methicillin, penicillin G or erythromycin, groups A4 to F4; conditions: for CFU: agar with 30 μg/ml methicillin
From the text: Two different laser dosages based on an effective dose established in previous experiments were used to treat a saline-suspension of logarithmically growing MRSA, labeled A4 to F4.

MRSA [5] = assay: MRSA/antimicrobial potentiation Experiment 2: CFU with or without 30 μg/ml methicillin, laser dosages A2 to H2; conditions: for Fold increase in methicillin sensitivity: 30 μg/ml methicillin
Procedure: Eight different laser dosages based on an effective dose established in experiment 1 and previously were used to treat a saline-suspension of logarithmically growing MRSA, labeled A2 to H2.
as §1, §2

## COc1cccc(OC)c1C(=O)N[C@@H]1C(=O)N2[C@@H]1SC(C)(C)[C@@H]2C(=O)O [Methicillin]
MRSA [1]; Exp (laser treated), laser dosage F1, with 30 μg/ml methicillin
  AVG (CFU): 197 CFU
MRSA [1]; condition A1
  fewer CFU in the laser treated samples compared to the untreated controls: 30%
MRSA [1]; condition B1
  fewer CFU in the laser treated samples compared to the untreated controls: 33%
MRSA [1]; condition C1
  fewer CFU in the laser treated samples compared to the untreated controls: 67%
MRSA [1]; treatments performed on sample A1, B1 and C1
  sensitization of MRSA by laser treatment (in words): sensitized the MRSA to the effects of methicillin
MRSA [2]; B3, Exp (laser treated), plates with 30 μg/ml methicillin
  CFU AVG: 19
MRSA [2]; CFU on plates with and without 30 μg/ml methicillin, groups A3 to H3
  effectiveness of methicillin in laser treated samples (in words): significant increase in the effectiveness of methicillin in all laser treated samples
MRSA [2]; D3, Cont (untreated suspension), plates with 30 μg/ml methicillin, single plates
  CFU: 58
MRSA [2]; D3, Exp (laser treated), plates with 30 μg/ml methicillin
  CFU AVG: 3.6
MRSA [2]; F3, Exp (laser treated), plates with 30 μg/ml methicillin
  CFU AVG: 9.8
MRSA [2]; G3, Exp (laser treated), plates with 30 μg/ml methicillin
  CFU AVG: 8.4
MRSA [2]; H3, Exp (laser treated), plates with 30 μg/ml methicillin
  CFU AVG: 8.4
MRSA [2]; laser dosage grouping A3
  Fold increase in methicillin sensitivity: 1.98
MRSA [2]; laser dosage grouping B3
  Fold increase in methicillin sensitivity: 1.62
MRSA [2]; laser dosage grouping C3
  Fold increase in methicillin sensitivity: 1.91
MRSA [2]; laser dosage grouping D3
  Fold increase in methicillin sensitivity: 2.59
MRSA [2]; laser dosage grouping E3
  Fold increase in methicillin sensitivity: 2.09
MRSA [2]; laser dosage grouping F3
  Fold increase in methicillin sensitivity: 2.08
MRSA [2]; laser dosage grouping G3
  Fold increase in methicillin sensitivity: 3.16
MRSA [2]; laser dosage grouping H3
  Fold increase in methicillin sensitivity: 2.97
MRSA [3]
  effect of methicillin after sub-lethal NIMELS irradiation on growth of MRSA colonies (in words): potentiated by sub-lethal NIMELS dosimetry; also recorded: produces a deleterious effect after sub-lethal NIMEL irradiation on normal growth of MRSA colonies
MRSA [4]; Group A4, Cont (no laser), replicate plates 1-5, 24 hrs 37° C.
  CFU: 97 CFU and 90 CFU
MRSA [4]; Group A4, Exp (laser treated), replicate plates 1-5
  CFU: 37 CFU and 33 CFU and 36 CFU (2×) and 39 CFU
MRSA [4]; Group B4, Exp (laser treated), replicate plates 1-5
  CFU: 46 CFU (2×) and 34 CFU and 42 CFU and 44 CFU
MRSA [4]; sub-lethal NIMELS dosimetry, bar chart figure
  synergy or potentiation with NIMELS in growth inhibition of MRSA colonies (in words): synergistic effects; also recorded: potentiated by sub-lethal NIMELS dosimetry
MRSA [4]; temperature levels not lethal to the organism
  reversal of MRSA resistance in vitro by dual wavelength NOVEON laser (in words): successful reversal of MRSA resistance
MRSA [5]; A2, Exp (laser treated), plates with 30 μg/ml methicillin
  CFU AVG: 41
MRSA [5]; CFU on plates with and without 30 μg/ml methicillin, groups A2 to H2
  effectiveness of methicillin in laser treated samples (in words): significant increase in the effectiveness of methicillin in all laser treated samples with the exception of A2 and B2
MRSA [5]; D2, Cont (untreated suspension), plates with 30 μg/ml methicillin
  CFU AVG: 52
MRSA [5]; D2, Exp (laser treated), plates with 30 μg/ml methicillin
  CFU AVG: 2.3
MRSA [5]; E2, Exp (laser treated), plates with 30 μg/ml methicillin
  CFU AVG: 2.7
MRSA [5]; F2, Cont (untreated suspension), plates with 30 μg/ml methicillin
  CFU AVG: 71
MRSA [5]; G2, Exp (laser treated), plates with 30 μg/ml methicillin
  CFU AVG: 8.3
MRSA [5]; H2, Cont (untreated suspension), plates with 30 μg/ml methicillin, single plates
  CFU: 82
MRSA [5]; laser dosage grouping A2
  Fold increase in methicillin sensitivity: 0.84
MRSA [5]; laser dosage grouping B2
  Fold increase in methicillin sensitivity: 0.91
MRSA [5]; laser dosage grouping C2
  Fold increase in methicillin sensitivity: 3.20
MRSA [5]; laser dosage grouping D2
  Fold increase in methicillin sensitivity: 2.44
MRSA [5]; laser dosage grouping E2
  Fold increase in methicillin sensitivity: 4.33
MRSA [5]; laser dosage grouping F2
  Fold increase in methicillin sensitivity: 2.13
MRSA [5]; laser dosage grouping G2
  Fold increase in methicillin sensitivity: 3.47
MRSA [5]; laser dosage grouping H2
  Fold increase in methicillin sensitivity: 1.62
